Experimental data taken from patent US20120294879A1, “CONSENSUS SEQUENCE FOR INFLUENZA A VIRUS” (priority 2009, published 2012).

Assays:
Format in all cases: cell-based
[1] = system: splenocytes of HLA-A24 (A*2402) transgenic mice; design: key to A24: average IFN-γ spots forming cells per million splenocytes: — represents no positive ELISpot response
[2] = system: splenocytes of HLA-B7 (B*0702) transgenic mice; design: key to B7: average IFN-γ spots forming cells per million splenocytes: — represents no positive ELISpot response
[3] = system: splenocytes of HLA-DR2 (DRB1*1501) transgenic mice; design: key to DR2: average IFN-γ spots forming cells per million splenocytes: — represents no positive ELISpot response
[4] = system: splenocytes of HLA-DR3 (DRB1*0301) transgenic mice; design: key to DR3: average IFN-γ spots forming cells per million splenocytes: — represents no positive ELISpot response
[5] = system: splenocytes of HLA-DR4 (DRB1*0401) transgenic mice; design: key: — represents no positive ELISpot response

| Sequence | A24: average IFN-γ spots forming cells per million splenocytes [1] | B7: average IFN-γ spots forming cells per million splenocytes [2] | DR2: average IFN-γ spots forming cells per million splenocytes [3] | DR3: average IFN-γ spots forming cells per million splenocytes [4] | DR4: average IFN-γ spots forming cells per million splenocytes [5] | DR2: lowest concentration of peptide giving positive ELISpot response in peptide titration [3] | DR3: lowest concentration of peptide giving positive ELISpot response in peptide titration [4] | A24: lowest concentration of peptide giving positive ELISpot response in peptide titration [1] | B7: lowest concentration of peptide giving positive ELISpot response in peptide titration [2] |
| --- | --- | --- | --- | --- | --- | --- | --- | --- | --- |
| KRSYEQMETDGERQNAT | — | — | — | — | 52 ± 29(0.1) IFN-γ spots forming cells per million splenocytes |  |  |  |  |
| DYRYTYRCHRGDTQIQT | — | — | 109 ± 13(1) IFN-γ spots forming cells per million splenocytes | 166 ± 22(0.1) IFN-γ spots forming cells per million splenocytes | 76 ± 2(0.1) IFN-γ spots forming cells per million splenocytes | 109 ± 13(1) μg/ml | 166 ± 22(0.1) μg/ml |  |  |
| ESKSMKLRTQIPAEMLA | — | — | 84 ± 20(0.1) IFN-γ spots forming cells per million splenocytes | — | — | 84 ± 20(0.1) μg/ml |  |  |  |
| SHGTGTGYTMDTVNRTH | — | — | — | — | 106 ± 1(0.1) IFN-γ spots forming cells per million splenocytes |  |  |  |  |
| PVHFRNQVKIRRRVDIN | — | — | — | — | 311 ± 37(0.1) IFN-γ spots forming cells per million splenocytes |  |  |  |  |
| NDLGPATAQMALQLFIK | 92 ± 2(1) IFN-γ spots forming cells per million splenocytes | — | — | — | — |  |  | 92 ± 2(1) μg/ml |  |
| KWVRELVLYDKEEIRRI | — | — | — | 614 ± 21(0.1) IFN-γ spots forming cells per million splenocytes | — |  | 614 ± 21(0.1) μg/ml |  |  |
| RMQFSSLTVNVRGSGMR | — | — | 104 ± 16(0.1) IFN-γ spots forming cells per million splenocytes | — | — | 104 ± 16(0.1) μg/ml |  |  |  |
| RFLRVRDQRGNVLLSPE | — | 184 ± 3 IFN-γ spots forming cells per million splenocytes | — | — | — |  |  |  | (0.1) μg/ml |
| APIMFSNKMARLGKGYM | — | — | — | 175 ± 0(0.1) IFN-γ spots forming cells per million splenocytes | — |  | 175 ± 0(0.1) μg/ml |  |  |
